Where two headings read alike, the source gives them in different places.
Assays:
[1] = tested on: purified naïve B cells from healthy donors
Experimental: Hemin and RBC lysate preparation. Hemin, dissolved in dimethyl sulfoxide (DMSO), stock concentration 10 mM, was diluted to 100 μM with serum-free RPMI 1640 culture medium just prior to addition to B cell cultures. For short-term experiments lasting less than 24 hr, a final concentration of 10 μM hemin was used whereas for longer-term culture up to 7 days, 2.5-5 μM final heme concentration was used. RBC lysates were freshly prepared (containing ~80 g/L hemoglobin) for same day use. Briefly, 4 ml whole blood from healthy donors was passed through Acrodisc WBC syringe filter (Pall Corporation) to remove white blood cells followed by two washes with Dulbecco's Phosphate Buffered Saline (D-PBS) (200×g, 10 min at room temperature with no brake) for removal of platelets. The RBC pellet was lysed with 3 times volume of distilled water for 10 min at 37° C. Cellular debris was pelleted by centrifugation at 4000×g for 10 min at 4° C. The RBC lysate was transferred to a new tube and 1/9 volume of 10×D-PBS added.
Cell isolation and culture. Peripheral blood mononuclear cells (PBMCs) were prepared by Ficoll (GE Healthcare) density gradient centrifugation from healthy donor leukopak products as well as from sickle peripheral blood apheresis waste bags. Human naïve and memory B cells were isolated from PBMCs using a human memory B Cell Isolation Kit (Miltenyi Biotec) by collecting CD27− B cells (naïve B cells) and CD27+ B cell (memory B cells) separately. […] RPMI 1640 culture medium was used for all cell culture experiments (supplemented with 10% FBS, 100-unit penicillin-streptomycin, […], 1 mM sodium pyruvate, all from Thermo Fisher Scientific). Purified B cells were stained with CFSE (Cat #: C34554, Thermo Fisher Scientific) and cultured in U-bottom 96 well plates (2.5×10^5/well/200 μl culture medium) in the presence of goat anti-human IgA+IgG+IgM (H+L) F(ab′)2 fragment (2.5 μg/ml, Jackson ImmunoResearch), CD154 (10 ng/ml, R&D Systems) and CpG (ODN 7909, 1 nM, Cat #: tlrl-2006-1) without IL-2 for analysis of only CD38+ plasmablast differentiation or with IL-2 (5 ng/ml, Cat #:1081-IL-020, R&D Systems) in experiments to detect CD27^hiBlimp-1+ plasma cells. In addition, heme and various inhibitors were added to the cultures at the start point and incubated for 7 days.
(§1) Cultured cells: stimulated B cells were transferred into U bottom 96 well plate and washed with 200 μl MACS buffer (D-PBS containing 0.5% BSA and 2 mM EDTA) at 300×g for 5 min at 4° C. After one wash, cells were stained for surface expression of CD19, CD38, CD27 using 25 μl staining buffer (anti-CD19, CD38, CD27 antibodies, diluted 200 fold with MACS buffer) for 30 min at 4° C. After one wash with 200 μl MACS buffer, cells were resuspended in 100 μl D-PBS and 50 μl Fixable Viability Dye eFluor™ 780 (1000 fold diluted with D-PBS, Thermo Fisher Scientific) was added for dead cell detection for 5 min at room temperature. Cells were washed one time with MACS buffer and 100 μl D-DPS was added just before flow cytometric analysis (LSRFortessa flow cytometer, BD Bioscience). For intracellular staining of IgG, Blimp-1 and HO-1, samples were first washed with 200 μl MACS buffer before addition of 150 μl Fixation/Permeabilization buffer (Thermo Fisher Scientific) for 45 min at 4° C. After fixation, samples were washed twice with 1× Permeabilization buffer (Thermo Fisher Scientific) and stained with 25 μl intracellular staining buffer (anti-human IgG, DOCK8, Blimp-1, HO-1 antibodies, diluted 200 fold with 1× Permeabilization buffer) for 45 min at 4° C., after which the cells were washed twice with Permeabilization buffer and 100p D-DPS was added prior to flow cytometric analysis.

[2] = tested on: naïve B cells from Allo(−) and Allo(+) SCD patients; experiment: 7-day stimulated naïve B cell culture from SCD patients; type: cell-based, human; details: for inhibition of plasmablast B cell differentiation: heme 5 μM
Experimental: Human samples. All studies were approved by the institutional Review Boards of the New York Blood Center (NYBC) and Montefiore Health Center. […] The blood samples from SCD patients were processed within 18 hours after collection. For circulating DOCK8 expression studies in healthy controls, peripheral blood samples from de-identified, race-matched healthy donors were used. Leukocyte enriched products from de-identified healthy donors were used for purification of B cells for in vitro culture studies.
Cell isolation and culture. Peripheral blood mononuclear cells (PBMCs) were prepared by Ficoll (GE Healthcare) density gradient centrifugation from healthy donor leukopak products as well as from sickle peripheral blood apheresis waste bags. Human naïve and memory B cells were isolated from PBMCs using a human memory B Cell Isolation Kit (Miltenyi Biotec) by collecting CD27− B cells (naïve B cells) and CD27+ B cell (memory B cells) separately. […] In addition, heme and various inhibitors were added to the cultures at the start point and incubated for 7 days.
as §1

HO-1 = HO-1 expression in stimulated B cells; type: cell-based, human; details: stimulated B cells treated with heme 2.5 or 5 μM
Description: HO-1 is a key enzyme for heme degradation with multiple biologic activities attributed to its enzymatic byproducts. We analyzed HO-1 expression levels in human B cells before and after stimulation with our polyclonal B cell activation cocktail. […] We also found higher HO-1 levels in DOCK8^hi plasma cells (FIG. 8B).

DOCK8 = DOCK8 expression and DOCK8hi/DOCK8lo subsets in stimulated B cells; type: cell-based, human; details: heme 5 μM
Description: We next tested the effect of cell-free heme on DOCK8 signaling during B cell differentiation. […] Heme treatment led to inhibition of CD27^hiBlimp-1^+ plasma cell differentiation (FIG. 2D, p=0.0195).

[3] = tested on: splenic B cells from C57BL/6J mice; experiment: Mouse B cell differentiation in vitro; type: cell-based; details: 7 days, hemin 2.5 or 5 μM, different doses of quinine
Bach2 = Bach2 levels in human B cells; type: cell-based; details: in the presence of heme
[4] = HD naïve B cells, 7 days, highest heme concentration tested (5 μM)

SMILES: C=CC1=C(C)c2cc3[n-]c(cc4[n-]c(cc5nc(cc1n2)C(C)=C5C=C)c(C)c4CCC(=O)O)c(CCC(=O)O)c3C.[Fe+2] [heme, iron(III) complex of protoporphyrin IX]
- effect on B cell proliferation ([1]; 2.5 μM heme): minor inhibition
- effect on differentiation of naïve B cells into plasmablasts ([1]; 2.5 μM heme): robust inhibitory effect
- B cell class switch recombination (percent IgG+ B cells) ([1]; 2.5 or 5 μM hemin): not affected
- inhibition of B cell proliferation [1, 4]: 6.8%±1.3%
- inhibition of plasmablast cell differentiation [1, 4]: 52.7%±8.0%
- effect on B cell proliferation ([1]; heme 2.5 μM, SnPPIX 2.5 μM, alone or together): little to no effect
- CD27hiBlimp-1+ plasma cell differentiation ([1]; heme 2.5 or 5 μM, 7 days): inhibition
- percentage of viable B cells ([1]; highest dose of heme used): high
- effect on B cell proliferation, Allo(−) versus Allo(+) patients ([2]; 2.5 or 5 μM hemin): did not differ
- DOCK8hi B cells and CD27hiBlimp-1+ plasma cell differentiation ([2]; Allo(+) SCD patients): not
- inhibition of plasmablast B cell differentiation ([2]; Allo(+) SCD patients): 16%±9.7%
- DOCK8hi B cells and CD27hiBlimp-1+ plasma cell differentiation ([2]; Allo(−) SCD patients): inhibited
- inhibition of plasmablast B cell differentiation ([2]; Allo(−) SCD patients): 58.6%±7.3%
- HO-1 expression (HO-1): further induced
- reduction in DOCK8hi subset (DOCK8): 61.6%±6.5%
- reduction in DOCK8lo subset (DOCK8): 34.1%±5.9%
- mouse plasma cell differentiation [3]: did not inhibit
- Bach2 levels (Bach2): no significant change
